{"source": "patent US20240041814A1", "about": "“USE OF REAGENT FOR DETECTING RETINOL METABOLITE IN PREPARATION OF TOOL FOR DIAGNOSING AND/OR TREATING PNEUMOCONIOSIS” (Institute of Basic Medical Sciences of Chinese Academy of …, priority 2022, published 2024)", "key": {"IL-1β and IL-6": {"system": "IL-1β and IL-6", "test": "ELISA of inflammatory factors in mouse BALF", "format": "in vivo", "conditions": "mice with pneumoconiosis, 10 mg/kg ATRA intragastrically 3 times a week for 4 weeks", "procedure": "Male C57BL/6J mice (aged 8-10 weeks and weighing 25-30 g) were selected and housed in an SPF grade laboratory animal room, and the model of pneumoconiosis was constructed by one-time intratracheal instillation of silica (Si); the mice were divided into four groups (n=9): (1) PBS+vehicle group: 40 μL of sterile phosphate-buffered saline (PBS) was administered by intratracheal instillation; two weeks later, corn oil was administered intragastrically 3 times a week, for 4 weeks; (2) PBS+ATRA group: 40 μL of sterile PBS was administered by intratracheal instillation; two weeks later, 10 mg/kg ATRA was administered intragastrically 3 times a week, for 4 weeks; (3) Si+vehicle group: a silica suspension (300 mg/mL, 40 μL) was administered by intratracheal instillation; two weeks later, corn oil was administered intragastrically 3 times a week, for 4 weeks; (4) Si+ATRA group: a silica suspension (300 mg/mL, 40 μL) was administered by intratracheal instillation; two weeks later, 10 mg/kg ATRA was administered intragastrically 3 times a week, for 4 weeks. All mice were sacrificed after 6 weeks, and the corresponding samples were collected for detection.\nConcentrations of inflammatory factors IL-1β and IL-6 in mouse BALF were detected by using ELISA kits."}, "FN-1 and Col-I": {"system": "FN-1 and Col-I", "test": "Western blot and qPCR of fibrosis factors in mouse lung tissue", "format": "in vivo", "conditions": "mice with pneumoconiosis, 10 mg/kg ATRA intragastrically 3 times a week for 4 weeks", "method": "Male C57BL/6J mice (aged 8-10 weeks and weighing 25-30 g) were selected and housed in an SPF grade laboratory animal room, and the model of pneumoconiosis was constructed by one-time intratracheal instillation of silica (Si); the mice were divided into four groups (n=9): (1) PBS+vehicle group: 40 μL of sterile phosphate-buffered saline (PBS) was administered by intratracheal instillation; two weeks later, corn oil was administered intragastrically 3 times a week, for 4 weeks; (2) PBS+ATRA group: 40 μL of sterile PBS was administered by intratracheal instillation; two weeks later, 10 mg/kg ATRA was administered intragastrically 3 times a week, for 4 weeks; (3) Si+vehicle group: a silica suspension (300 mg/mL, 40 μL) was administered by intratracheal instillation; two weeks later, corn oil was administered intragastrically 3 times a week, for 4 weeks; (4) Si+ATRA group: a silica suspension (300 mg/mL, 40 μL) was administered by intratracheal instillation; two weeks later, 10 mg/kg ATRA was administered intragastrically 3 times a week, for 4 weeks. All mice were sacrificed after 6 weeks, and the corresponding samples were collected for detection. Lung tissue proteins of all mice were extracted. […]"}, "mice with pneumoconiosis [1]": {"system": "mice with pneumoconiosis", "test": "Cardiopulmonary function test (RVSP, lung function IC and Cst)", "format": "in vivo, mouse", "conditions": "ATRA-treated mice with pneumoconiosis compared with control mice, 10 mg/kg intragastrically 3 times a week for 4 weeks", "method": "Male C57BL/6J mice (aged 8-10 weeks and weighing 25-30 g) were selected and housed in an SPF grade laboratory animal room, and the model of pneumoconiosis was constructed by one-time intratracheal instillation of silica (Si); the mice were divided into four groups (n=9): (1) PBS+vehicle group: 40 μL of sterile phosphate-buffered saline (PBS) was administered by intratracheal instillation; two weeks later, corn oil was administered intragastrically 3 times a week, for 4 weeks; (2) PBS+ATRA group: 40 μL of sterile PBS was administered by intratracheal instillation; two weeks later, 10 mg/kg ATRA was administered intragastrically 3 times a week, for 4 weeks; (3) Si+vehicle group: a silica suspension (300 mg/mL, 40 μL) was administered by intratracheal instillation; two weeks later, corn oil was administered intragastrically 3 times a week, for 4 weeks; (4) Si+ATRA group: a silica suspension (300 mg/mL, 40 μL) was administered by intratracheal instillation; two weeks later, 10 mg/kg ATRA was administered intragastrically 3 times a week, for 4 weeks. All mice were sacrificed after 6 weeks, and the corresponding samples were collected for detection. An anesthetized mouse was fixed on an experimental bench, and an 8 gauge needle connected with a high-fidelity pressure sensor was inserted into the right ventricle to directly measure the invasive right ventricular systolic pressure (RVSP). The RVSP was recorded and analyzed by a Power Lab data acquisition and analysis system (PL 3504, AD Instruments, Australia). Mouse lung function was detected by a pulmonary function testing system (DSI Buxco, USA). Before experiment, the mouse was anesthetized by intraperitoneal injection of 0.4 mL/100 g 2% pentobarbital, tracheotomy was performed, a trachea cannula was inserted, and a ventilator was connected. […] A statistical analysis was conducted on indexes closely related to lung function changes of pneumoconiosis, including inspiratory capacity (IC) and quasi-static compliance (Cst)."}, "mice with pneumoconiosis [2]": {"system": "mice with pneumoconiosis", "test": "Pathological staining of lung (HE, Szapiel score; Masson, Aschroft score)", "format": "in vivo, mouse", "conditions": "10 mg/kg ATRA intragastrically 3 times a week for 4 weeks", "method": "Male C57BL/6J mice (aged 8-10 weeks and weighing 25-30 g) were selected and housed in an SPF grade laboratory animal room, and the model of pneumoconiosis was constructed by one-time intratracheal instillation of silica (Si); the mice were divided into four groups (n=9): (1) PBS+vehicle group: 40 μL of sterile phosphate-buffered saline (PBS) was administered by intratracheal instillation; two weeks later, corn oil was administered intragastrically 3 times a week, for 4 weeks; (2) PBS+ATRA group: 40 μL of sterile PBS was administered by intratracheal instillation; two weeks later, 10 mg/kg ATRA was administered intragastrically 3 times a week, for 4 weeks; (3) Si+vehicle group: a silica suspension (300 mg/mL, 40 μL) was administered by intratracheal instillation; two weeks later, corn oil was administered intragastrically 3 times a week, for 4 weeks; (4) Si+ATRA group: a silica suspension (300 mg/mL, 40 μL) was administered by intratracheal instillation; two weeks later, 10 mg/kg ATRA was administered intragastrically 3 times a week, for 4 weeks. All mice were sacrificed after 6 weeks, and the corresponding samples were collected for detection. […] For HE staining, inflammation was scored based on Szapiel scores; for Masson staining, the severity of fibrosis was scored by Aschroft scores. The sections were scanned, photographed and counted by a 3D HISTECH digital slide scanner."}, "mice with pneumoconiosis [3]": {"system": "mice with pneumoconiosis", "test": "Mouse model of pneumoconiosis (intratracheal silica) with ATRA treatment, overall outcome", "format": "in vivo", "conditions": "10 mg/kg ATRA intragastrically 3 times a week for 4 weeks"}}}
{"smiles": "CC1=C(/C=C/C(C)=C/C=C/C(C)=C/C(=O)O)C(C)(C)CCC1", "note": "[ATRA, All-trans retinoic acid]", "values": [{"measurement": "concentration of IL-1β in BALF", "setting": "IL-1β and IL-6", "value": "lowered concentrations"}, {"measurement": "concentration of IL-6 in BALF", "setting": "IL-1β and IL-6", "value": "lowered concentrations"}, {"measurement": "level of fibrosis factor Col-I in lung tissue (transcriptional)", "setting": "FN-1 and Col-I", "value": "reduced levels"}, {"measurement": "level of fibrosis factor FN-1 in lung tissue (translational and transcriptional)", "setting": "FN-1 and Col-I", "value": "reduced levels"}, {"measurement": "inspiratory capacity (IC)", "setting": "mice with pneumoconiosis [1]", "value": "improved to a certain extent"}, {"measurement": "quasi-static compliance (Cst)", "setting": "mice with pneumoconiosis [1]", "value": "improved to a certain extent"}, {"measurement": "right ventricular systolic pressure (RVSP)", "setting": "mice with pneumoconiosis [1]", "value": "lowered to a certain extent"}, {"measurement": "severity of fibrosis (Masson staining)", "setting": "mice with pneumoconiosis [2]", "value": "reduce the severity"}, {"measurement": "severity of inflammation (HE staining)", "setting": "mice with pneumoconiosis [2]", "value": "reduce the severity"}, {"measurement": "cardiopulmonary function, inflammation, and fibrosis", "setting": "mice with pneumoconiosis [3]", "value": "significantly improve"}]}
